From ChEMBL document CHEMBL3856191, “Structural modifications at the 6-position of thieno[2,3-d]pyrimidines and their effects on potency at FLT3 for treatment of acute myeloid leukemia” (Eur J Med Chem, 2016)

What was measured:
[1] = biological target: MAP kinase-activated protein kinase 2 (Homo sapiens) (UniProt P49137); test: Inhibition of recombinant human MAPKAPK2 expressed in Escherichia coli assessed as remaining activity at 10 uM preincubated for 15 mins followed by MAPKAPK substrate peptide addition for 30 mins in presence of [gamma-32P]ATP by […] assay
[2] = Metabolic stability in human liver microsomes assessed as compound remaining at 1 uM after 30 mins in presence of NADPH by HPLC-MS analysis; type: ADME; details: read-out: Stability
[3] = biological target: PI3K p110 beta/p85 alpha (Homo sapiens) (UniProt P27986+P42338); test: Inhibition of PI3K p110beta/p85alpha (unknown origin) assessed as remaining activity at 10 uM in presence of [gamma-32P]ATP by […] assay; type: protein-complex assay
[4] = biological target: Mast/stem cell growth factor receptor Kit (Homo sapiens) (UniProt P10721); test: Inhibition of recombinant human c-Kit expressed in insect High-5 cells assessed as remaining activity at 10 uM preincubated for 15 mins followed by poly(Glu:Tyr) substrate addition for 30 mins in presence of [gamma-32P]ATP by […] assay; details: BTI-TN-5B1-4
[5] = biological target: Platelet-derived growth factor receptor beta (Homo sapiens) (UniProt P09619); test: Inhibition of recombinant human PDGFR-beta expressed in insect Sf21 cells assessed as remaining activity at 10 uM preincubated for 15 mins followed by poly(Glu:Tyr) substrate addition for 30 mins in presence of [gamma-32P]ATP by […] assay
[6] = biological target: Macrophage colony-stimulating factor 1 receptor (Homo sapiens) (UniProt P07333); test: Inhibition of recombinant human FMS expressed in insect Sf21 cells assessed as remaining activity at 10 uM preincubated for 15 mins followed by poly(Glu:Tyr) substrate addition for 30 mins in presence of [gamma-32P]ATP by […] assay
[7] = biological target: Tyrosine-protein kinase ABL2 (Homo sapiens) (UniProt P42684); test: Inhibition of human recombinant ARG expressed in sf21 cells assessed as remaining activity at 10 uM preincubated for 15 mins followed by Poly(Glu:Tyr) addition measured after 30 mins in presence of [gamma-32P]ATP by […] assay
[8] = biological target: Receptor tyrosine-protein kinase erbB-2 (Homo sapiens) (UniProt P04626); test: Inhibition of recombinant human ERBB2 expressed in insect cells assessed as remaining activity at 10 uM preincubated for 15 mins followed by poly(Glu:Tyr) substrate addition for 30 mins in presence of [gamma-32P]ATP by […] assay
[9] = biological target: Receptor-type tyrosine-protein kinase FLT3 (Homo sapiens, UniProt P36888, D835Y)
Description: Inhibition of human FLT3 D835Y mutant preincubated for 15 mins followed by poly(Glu:Tyr) substrate addition for 30 mins in presence of [gamma-32P]ATP by TR-FRET assay

[10] = biological target: Mitogen-activated protein kinase 11 (Homo sapiens) (UniProt Q15759); test: Inhibition of human SAPK2b assessed as remaining activity at 10 uM in presence of [gamma-32P]ATP by […] assay
[11] = biological target: Aurora kinase A (Homo sapiens) (UniProt O14965); test: Inhibition of recombinant human AURORA A expressed in insect Sf21 cells assessed as remaining activity at 10 uM preincubated for 15 mins followed by Kemptide substrate addition for 30 mins in presence of [gamma-32P]ATP by […] assay
[12] = biological target: Fibroblast growth factor receptor 1 (Homo sapiens) (UniProt P11362); test: Inhibition of recombinant human FGFR1 expressed in insect Sf21 cells assessed as remaining activity at 10 uM preincubated for 15 mins followed by poly(Glu:Tyr) substrate addition for 30 mins in presence of [gamma-32P]ATP by […] assay
[13] = biological target: Mitogen-activated protein kinase 14 (Homo sapiens) (UniProt Q16539); test: Inhibition of human SAPK2a assessed as remaining activity at 10 uM in presence of [gamma-32P]ATP by […] assay
[14] = Metabolic stability in rat liver microsomes assessed as compound remaining at 1 uM after 30 mins in presence of NADPH by HPLC-MS analysis; type: ADME; details: liver microsomes, read-out: Stability
[15] = biological target: Tyrosine-protein kinase ABL1 (Homo sapiens, UniProt P00519); test: Inhibition of recombinant human ABL1 expressed in insect cells assessed as remaining activity at 10 uM preincubated for 15 mins followed by poly(Glu:Tyr) substrate addition for 30 mins in presence of [gamma-32P]ATP by […] assay
[16] = biological target: PI3-kinase p110-delta/p85-alpha (Homo sapiens) (UniProt P27986+O00329); test: Inhibition of PI3K p110delta/p85alpha (unknown origin) assessed as remaining activity at 10 uM in presence of [gamma-32P]ATP by […] assay; type: protein-complex assay
[17] = biological target: Mitogen-activated protein kinase 10 (Homo sapiens) (UniProt P53779); test: Inhibition of recombinant human JNK3 expressed in insect Sf21 cells assessed as remaining activity at 10 uM preincubated for 15 mins followed by ATF2 substrate addition for 30 mins in presence of [gamma-32P]ATP by […] assay
Angiopoietin-1 receptor = Angiopoietin-1 receptor (Homo sapiens, UniProt Q02763); test: Inhibition of human TIE2 assessed as remaining activity at 10 uM preincubated for 15 mins followed by substrate addition measured after 30 mins in presence of [gamma-32P]ATP by […] assay
[18] = biological target: PI3-kinase p110-alpha/p85-alpha (Homo sapiens) (UniProt P27986+P42336); test: Inhibition of PI3K P110alpha/p85alpha (unknown origin) assessed as remaining activity at 10 uM in presence of [gamma-32P]ATP by […] assay; type: protein-complex assay
[19] = biological target: Mitogen-activated protein kinase 1 (Homo sapiens) (UniProt P28482); test: Inhibition of recombinant human MAPK1 expressed in Escherichia coli assessed as remaining activity at 10 uM preincubated for 15 mins followed by myelin basic protein substrate addition for 30 mins in presence of [gamma-32P]ATP by […] assay
[20] = biological target: Serine/threonine-protein kinase mTOR (Homo sapiens) (UniProt P42345); test: Inhibition of human mTOR assessed as remaining activity at 10 uM in presence of [gamma-32P]ATP by […] assay
[21] = biological target: Vascular endothelial growth factor receptor 3 (Homo sapiens) (UniProt P35916); test: Inhibition of recombinant human FLT4 expressed in insect cells assessed as remaining activity at 10 uM preincubated for 15 mins followed by poly(Glu:Tyr) substrate addition for 30 mins in presence of [gamma-32P]ATP by […] assay
cells = details: Homo sapiens, K562, 48 h
Description: Growth inhibition of human K562 cells after 48 hrs by XTT assay

[22] = biological target: Serine/threonine-protein kinase pim-1 (Homo sapiens) (UniProt P11309); test: Inhibition of recombinant human PIM1 expressed in Escherichia coli assessed as remaining activity at 10 uM preincubated for 15 mins followed by S6 kinase/Rsk2 substrate peptide 2 addition for 30 mins in presence of [gamma-32P]ATP by […] assay

Chain of Tyrosine-protein kinase ABL2 (Homo sapiens) (P42684 whole entry): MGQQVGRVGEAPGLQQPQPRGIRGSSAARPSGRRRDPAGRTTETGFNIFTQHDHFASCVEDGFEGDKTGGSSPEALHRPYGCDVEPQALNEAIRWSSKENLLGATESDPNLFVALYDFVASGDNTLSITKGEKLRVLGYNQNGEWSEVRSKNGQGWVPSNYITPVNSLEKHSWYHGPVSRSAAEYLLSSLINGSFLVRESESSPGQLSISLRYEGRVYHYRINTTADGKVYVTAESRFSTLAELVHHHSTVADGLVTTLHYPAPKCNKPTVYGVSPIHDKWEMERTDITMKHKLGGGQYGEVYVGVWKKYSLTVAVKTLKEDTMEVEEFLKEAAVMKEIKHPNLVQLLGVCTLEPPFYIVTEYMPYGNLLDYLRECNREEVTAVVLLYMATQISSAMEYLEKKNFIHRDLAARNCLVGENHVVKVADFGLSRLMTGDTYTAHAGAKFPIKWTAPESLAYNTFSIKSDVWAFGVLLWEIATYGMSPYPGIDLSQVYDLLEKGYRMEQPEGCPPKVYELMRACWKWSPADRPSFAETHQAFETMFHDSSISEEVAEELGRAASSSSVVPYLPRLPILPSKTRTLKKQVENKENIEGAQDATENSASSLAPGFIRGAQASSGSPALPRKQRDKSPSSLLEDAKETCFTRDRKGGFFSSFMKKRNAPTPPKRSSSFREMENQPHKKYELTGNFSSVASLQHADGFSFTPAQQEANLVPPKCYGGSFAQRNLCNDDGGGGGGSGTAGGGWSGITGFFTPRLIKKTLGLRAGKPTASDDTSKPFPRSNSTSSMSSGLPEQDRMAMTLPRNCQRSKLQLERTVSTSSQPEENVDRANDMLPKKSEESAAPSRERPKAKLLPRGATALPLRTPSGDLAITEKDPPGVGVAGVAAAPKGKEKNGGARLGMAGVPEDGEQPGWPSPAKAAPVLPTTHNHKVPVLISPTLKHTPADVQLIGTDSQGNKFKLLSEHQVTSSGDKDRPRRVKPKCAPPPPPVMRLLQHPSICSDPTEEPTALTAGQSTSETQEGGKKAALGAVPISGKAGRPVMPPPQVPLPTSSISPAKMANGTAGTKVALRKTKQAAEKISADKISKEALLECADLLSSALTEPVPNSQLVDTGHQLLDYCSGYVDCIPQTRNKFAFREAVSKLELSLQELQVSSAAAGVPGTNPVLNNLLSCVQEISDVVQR
Chain of Angiopoietin-1 receptor (Q02763 whole entry): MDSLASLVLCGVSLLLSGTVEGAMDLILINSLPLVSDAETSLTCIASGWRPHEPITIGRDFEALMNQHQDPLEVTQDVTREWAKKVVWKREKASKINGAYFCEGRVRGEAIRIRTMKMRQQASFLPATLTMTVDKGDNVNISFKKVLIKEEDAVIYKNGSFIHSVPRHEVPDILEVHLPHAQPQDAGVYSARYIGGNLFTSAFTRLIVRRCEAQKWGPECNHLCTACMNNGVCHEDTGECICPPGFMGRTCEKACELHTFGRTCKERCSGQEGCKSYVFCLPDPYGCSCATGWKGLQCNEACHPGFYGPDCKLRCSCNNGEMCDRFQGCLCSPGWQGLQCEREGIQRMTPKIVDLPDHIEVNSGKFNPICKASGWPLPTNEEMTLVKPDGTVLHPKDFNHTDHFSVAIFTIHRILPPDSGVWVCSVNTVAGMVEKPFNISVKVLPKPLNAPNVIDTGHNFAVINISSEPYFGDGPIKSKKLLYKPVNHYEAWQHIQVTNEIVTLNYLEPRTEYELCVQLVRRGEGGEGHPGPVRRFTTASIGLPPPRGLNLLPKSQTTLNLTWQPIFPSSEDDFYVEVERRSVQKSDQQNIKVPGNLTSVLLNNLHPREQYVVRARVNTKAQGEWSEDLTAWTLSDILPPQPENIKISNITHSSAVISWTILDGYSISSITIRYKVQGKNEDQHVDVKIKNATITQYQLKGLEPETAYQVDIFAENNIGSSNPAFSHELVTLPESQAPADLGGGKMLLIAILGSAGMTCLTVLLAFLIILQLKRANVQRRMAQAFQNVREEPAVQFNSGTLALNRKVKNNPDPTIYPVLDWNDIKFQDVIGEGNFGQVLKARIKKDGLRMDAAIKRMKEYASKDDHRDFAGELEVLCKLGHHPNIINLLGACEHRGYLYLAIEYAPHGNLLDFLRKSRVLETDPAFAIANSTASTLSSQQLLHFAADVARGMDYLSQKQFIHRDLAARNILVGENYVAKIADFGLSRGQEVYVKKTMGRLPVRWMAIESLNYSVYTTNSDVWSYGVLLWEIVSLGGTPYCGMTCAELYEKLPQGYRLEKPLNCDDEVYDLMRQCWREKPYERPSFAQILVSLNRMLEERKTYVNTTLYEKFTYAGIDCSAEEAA
Chain of Receptor tyrosine-protein kinase erbB-2 (Homo sapiens) (P04626 whole entry): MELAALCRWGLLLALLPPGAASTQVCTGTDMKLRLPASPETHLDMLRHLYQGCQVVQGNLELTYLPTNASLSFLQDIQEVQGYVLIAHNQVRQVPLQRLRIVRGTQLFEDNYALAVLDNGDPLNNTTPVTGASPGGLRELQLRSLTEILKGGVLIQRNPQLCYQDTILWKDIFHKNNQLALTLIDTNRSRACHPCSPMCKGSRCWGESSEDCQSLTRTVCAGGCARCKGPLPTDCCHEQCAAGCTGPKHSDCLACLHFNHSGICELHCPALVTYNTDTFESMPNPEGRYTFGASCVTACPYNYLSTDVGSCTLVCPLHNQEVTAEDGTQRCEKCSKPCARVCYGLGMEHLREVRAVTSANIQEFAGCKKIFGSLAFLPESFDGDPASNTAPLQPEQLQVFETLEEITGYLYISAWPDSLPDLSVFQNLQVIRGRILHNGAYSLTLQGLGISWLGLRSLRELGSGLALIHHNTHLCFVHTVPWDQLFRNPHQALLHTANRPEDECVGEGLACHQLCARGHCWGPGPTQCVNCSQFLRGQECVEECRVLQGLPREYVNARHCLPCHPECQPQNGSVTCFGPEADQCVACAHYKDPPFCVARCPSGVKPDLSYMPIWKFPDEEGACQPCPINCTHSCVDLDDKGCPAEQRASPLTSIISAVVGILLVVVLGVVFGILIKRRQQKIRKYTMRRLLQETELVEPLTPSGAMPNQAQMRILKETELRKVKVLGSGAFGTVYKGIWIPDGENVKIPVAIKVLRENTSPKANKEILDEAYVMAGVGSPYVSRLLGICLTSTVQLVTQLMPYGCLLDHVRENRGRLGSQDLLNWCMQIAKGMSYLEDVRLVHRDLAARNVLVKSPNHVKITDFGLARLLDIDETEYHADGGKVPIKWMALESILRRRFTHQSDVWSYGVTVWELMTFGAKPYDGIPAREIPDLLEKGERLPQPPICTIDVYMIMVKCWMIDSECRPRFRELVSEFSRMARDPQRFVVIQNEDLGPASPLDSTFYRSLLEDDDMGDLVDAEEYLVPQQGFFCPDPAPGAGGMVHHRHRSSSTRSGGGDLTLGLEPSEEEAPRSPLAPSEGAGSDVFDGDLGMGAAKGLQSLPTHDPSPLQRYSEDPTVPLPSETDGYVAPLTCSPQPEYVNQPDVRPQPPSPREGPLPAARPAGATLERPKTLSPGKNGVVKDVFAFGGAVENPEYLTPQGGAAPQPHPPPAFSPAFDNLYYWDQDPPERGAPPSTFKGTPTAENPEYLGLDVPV
Chain of Mitogen-activated protein kinase 1 (Homo sapiens) (P28482 whole entry): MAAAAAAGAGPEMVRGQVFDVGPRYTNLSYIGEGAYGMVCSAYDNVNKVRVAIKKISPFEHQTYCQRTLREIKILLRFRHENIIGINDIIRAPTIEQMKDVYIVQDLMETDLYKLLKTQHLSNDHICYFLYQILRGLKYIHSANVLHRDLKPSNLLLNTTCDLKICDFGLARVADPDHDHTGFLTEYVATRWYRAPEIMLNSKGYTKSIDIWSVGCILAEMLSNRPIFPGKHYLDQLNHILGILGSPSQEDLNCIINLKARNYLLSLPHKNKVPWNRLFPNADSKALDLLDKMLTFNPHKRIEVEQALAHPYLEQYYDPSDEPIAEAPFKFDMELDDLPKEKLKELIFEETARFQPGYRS
Chain of Mitogen-activated protein kinase 11 (Homo sapiens) (Q15759 whole entry): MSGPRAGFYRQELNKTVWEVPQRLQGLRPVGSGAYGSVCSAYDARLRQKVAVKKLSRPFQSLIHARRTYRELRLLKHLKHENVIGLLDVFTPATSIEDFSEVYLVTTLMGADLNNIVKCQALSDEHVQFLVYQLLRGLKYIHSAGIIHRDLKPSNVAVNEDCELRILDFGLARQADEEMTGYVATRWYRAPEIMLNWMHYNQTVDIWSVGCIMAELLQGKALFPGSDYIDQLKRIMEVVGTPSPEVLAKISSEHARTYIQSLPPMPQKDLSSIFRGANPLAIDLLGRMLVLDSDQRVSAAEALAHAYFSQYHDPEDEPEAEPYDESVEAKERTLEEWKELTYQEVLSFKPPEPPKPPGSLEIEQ
Chain of MAP kinase-activated protein kinase 2 (Homo sapiens) (P49137 whole entry, looked up): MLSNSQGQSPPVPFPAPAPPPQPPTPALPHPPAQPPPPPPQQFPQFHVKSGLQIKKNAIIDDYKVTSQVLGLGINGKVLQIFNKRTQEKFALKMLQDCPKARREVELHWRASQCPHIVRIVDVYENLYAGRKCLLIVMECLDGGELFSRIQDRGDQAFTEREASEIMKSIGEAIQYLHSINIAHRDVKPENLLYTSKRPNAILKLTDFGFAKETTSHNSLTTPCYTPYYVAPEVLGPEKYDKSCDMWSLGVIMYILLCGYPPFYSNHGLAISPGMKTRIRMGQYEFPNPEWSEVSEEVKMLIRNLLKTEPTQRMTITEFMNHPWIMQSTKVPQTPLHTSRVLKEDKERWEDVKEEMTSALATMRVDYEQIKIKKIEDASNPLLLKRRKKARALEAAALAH
Chain of Mitogen-activated protein kinase 14 (Homo sapiens) (Q16539 whole entry): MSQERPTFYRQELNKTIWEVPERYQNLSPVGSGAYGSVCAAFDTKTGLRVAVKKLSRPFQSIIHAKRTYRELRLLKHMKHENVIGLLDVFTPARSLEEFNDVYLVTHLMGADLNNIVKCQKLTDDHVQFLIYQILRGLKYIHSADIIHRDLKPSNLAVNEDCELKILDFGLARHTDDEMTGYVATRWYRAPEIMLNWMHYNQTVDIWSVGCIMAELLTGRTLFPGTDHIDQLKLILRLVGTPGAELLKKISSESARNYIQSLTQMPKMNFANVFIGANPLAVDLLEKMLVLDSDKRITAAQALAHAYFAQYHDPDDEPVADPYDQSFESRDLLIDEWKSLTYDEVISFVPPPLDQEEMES

## CNCCOc1ccc(-c2sc3nc(-c4cccs4)nc(NN4C(=O)C=C(C)C4=O)c3c2C)cc1.Cl
[1]
  Activity: 63 to 100%
[2]
  remaining at 0.5 h, 1 µM: 79.8%
[3]
  Activity: 70%
[4]
  Activity: 75%
[5]
  Activity: 88%
[6]
  Activity: 78%
[7]
  Activity: 52%
[8]
  Activity: 89%
[9]
  IC50: 10.2 nM
[10]
  Activity: 90%
[11]
  Activity: 67%
[12]
  Activity: 53%
[13]
  Activity: 92%
[14]
  remaining at 0.5 h, 1 µM: 67.1%
[15]
  Activity: 11%
[16]
  Activity: 37%
[17]
  Activity: 96%
Angiopoietin-1 receptor
  Activity: 16%
[18]
  Activity: 96%
[19]
  Activity: 114%
[20]
  Activity: 79%
[21]
  Activity: 24%
cells
  GI50: 564 nM
[22]
  Activity: 46%
